Test results reported in patent US20090061416A1, “Surfaces and methods for biosensor cellular assays” (priority 2007, published 2009).

What was measured:
[1] = test system: endogenous P2Y receptors in HEK 293 cells; assay: ATP-induced DMR signals of HEK293 cells on coated RWG biosensor surfaces; type: cell-based, human
From the text: Three surface densities were individually prepared by slow evaporation of 0.0015%, 0.1% and 1.5 weight % gelatin solutions, as described above, covering the biosensor surfaces. The resultant respective gelatin surfaces were referred to as low-, medium-, and high-density gelatin surfaces, respectively. HEK293 cells were separately cultured onto these surfaces.
P2Y receptors belong to the family of G protein-coupled receptors. HEK 293 cells endogenously express several isoforms of P2Y receptors. […] The arrow (540) indicates when the stimulus, an ATP solution, was introduced.
FIGS. 6A and 6B show the reproducibility and robustness of a cell assay of the disclosure using HEK293 cells that were cultured on a low-density gelatin-coated 384-well Epic™ biosensor microplate. A 10 micromolar ATP solution was added to selected well of column 15 of the microplate. The ATP-induced DMR response signals within one column (16 wells) were recorded in real time in seconds and plotted in FIG. 6A. The amplitudes of the initial positive DMR (P-DMR) event (wavelength shift) of the ATP-induced DMR signals were plotted as a function of well numbers 1-16 in FIG. 6B. The assay Coefficient of Variability (CV), or reproducibility, was about 4%, indicating a relatively high reproducibility, with an average signal of 193 picometers (pm), and a standard deviation of 8 pm.
To covalently couple RGD-like peptides to the biosensor surface, the biosensor was coated sequentially with a thin layer of silicon oxide (about 3 nm), aminopropylsilane (about 1-3 nm), poly(ethylene-alt-maleic anhydride) (EMA) (forming polymeric clusters), and finally a RGD-like peptide (Gly-Arg-Gly-Asp-Ser, GRGDS). Specifically, a thin layer of silicon oxide was deposited onto the Corning Epic™ niobium oxide waveguide surface up to 3 nm. Afterwards, the biosensor was coated with an aminopropylsilane solution of about 0.1 vol/vol %, washed and dried, followed by the interaction with an EMA solution of about 0.01 wt/vol %, and washed and dried. Finally, a GRGDS solution was applied to the EMA biosensor surface. […]

CHO-KCNQ cells = assay: ATP-induced DMR signals of CHO-KCNQ cells on RWG biosensor; type: cell-based, Chinese hamster
Procedure: Referring to the Figures, FIGS. 1A and 1B show cross-sectional configurations of two examples of RWG biosensors used for living cell sensing. In FIG. 1A a cell (10) is directly cultured onto the unmodified or bare surface of the waveguide thin film (15) of a RWG biosensor (18) having a waveguide grating atop a substrate. In FIG. 1B a cell (10) is cultured onto the surface of an inorganic thin film (19) which has been previously deposited onto the surface of the waveguide thin film (15). Here a thin film of silicon oxide of about 1 nm to about 5 nm is directly deposited onto the surface of a waveguide thin film of niobium oxide by vapor deposition method. Each biosensor associated cell has an approximate penetration depth (20). […] CHO-KCNQ is an engineered CHO cell having over-expressed a potassium ion channel KCNQ2. FIGS. 2A and 2B compare the ATP-induced DMR signals, response units versus time, of CHO-KCNQ cells: The FIG. 2A cells were cultured on an unmodified or bare niobia surface of the waveguide thin film of a Corning® Epic™ RWG biosensor; and FIG. 2B cells were cultured on a biosensor having, for example, a discontinuous thin film modified waveguide surface of silicon dioxide particles. […]

[2] = test system: intracellular protein kinase C (PKC) in Jurkat cells; assay: pseudo-RACK1-induced optical signals of Jurkat cells anchored on RWG biosensor surfaces; type: cell-based, human
From the text: The Jurkat cells, which present antigens at the cell's surface, were contacted with four different surface types: a bare waveguide substrate having a thin layer of silicon oxide (i.e., SiOx/Nb2O5, uncoated biosensor substrate) (810), a SiOx/Nb2O5 surface having anti-human CD3 (anti-CD3) (820), a SiOx/Nb2O5 surface having amino-reactive polymer EMA coating (EMA) (830), and a SiOx/Nb2O5 surface having covalently coupled anti-human CD3 (i.e., anti-CD3-EMA) (840). The anti-CD3 surface was achieved by incubating a solution containing anti-human CD3 antibody (25 μg/ml) onto the bare SiOx/Nb2O5 surface for 1 hour, followed by washing and drying. The EMA surface was prepared as described above, i.e., by sequentially coating the bare SiOx/Nb2O5 surface with aminopropylsilane and then EMA. The anti-CD3/EMA surface was prepared by incubating anti-human CD3 (25 μg/ml) solution with the EMA surface for 1 hour, followed by blocking with ethanolamine at 1% for 1 hour. The Jurkat cells were incubated on either surface for about 2 hours before assays. The kinetic response, before and after the pseudo-RACK1 addition, was recorded in real time.
Pseudo-RACK1 is a peptide (OH-lys-lys-trp-lys-met-arg-arg-asn-gln-phe-trp-ile-lys-ile-gln-arg-cys----cys-ser-val-glu-ile-trp-asp-OH) and activates intracellular protein kinase C (PKC).

Row | Compound | amplitude of initial positive DMR (P-DMR) event, average signal ([1]; 10 micromolar ATP, HEK293 cells on low-density gelatin-coated 384-well Epic microplate, 16 wells (FIG. 6)) | ATP-induced DMR response intensity ([1]; 20 micromolar ATP, HEK293 cells on GRGDS-derivatized EMA surfaces made with 10, 30, 100, 250 micromolar GRGDS (FIG. 7)) | detection of ATP-induced DMR signals ([1]; HEK293 cells on low-, medium- and high-density gelatin-coated surfaces (FIG. 5)) | ATP-induced DMR signal, average signal (CHO-KCNQ cells; CHO-KCNQ cells cultured on discontinuous thin film of silicon dioxide particles on waveguide (FIG. 2B)) | ATP-induced DMR signal, average signal (CHO-KCNQ cells; CHO-KCNQ cells cultured on unmodified or bare niobia waveguide surface (FIG. 2A)) | optical signal after stimulation ([2]; 9 μM, Jurkat cells on anti-CD3, EMA and anti-CD3-EMA surfaces (FIG. 8A)) | optical signal after stimulation ([2]; Jurkat cells on bare SiOx/Nb2O5 surface (FIG. 8A))
1 | Nc1ncnc2c1ncn2[C@@H]1O[C@H](COP(=O)(O)OP(=O)(O)OP(=O)(O)O)[C@@H](O)[C@H]1O [ATP, adenosine triphosphate] | 193 picometers (pm) | increasing response intensity | Only the low-density gelatin-coated surface enabled the detection | 144 pm | 115 pm | – | –
2 | OH-lys-lys-trp-lys-met-arg-arg-asn-gln-phe-trp-ile-lys-ile-gln-arg-cys----cys-ser-val-glu-ile-trp-asp-OH [pseudo-RACK1] | – | – | – | – | – | significant optical signals | did not led to any detectable optical signal
